Data on 42 compounds can be found in patent US6376670B1, “Quinoline-indole antimicrobial agents, uses and compositions related thereto” (Sepracor Inc., priority 1997, dated 2002).

Where two headings read alike, the source gives them in different places.

The MIC is the least concentration at which growth counts as inhibited.

Assay in all cases: Determination of MIC values (BHI broth, 96 well microtiter plate)
Holding throughout (assay type): cell-based

The subject of assay [1] is methicillin-resistant Staphylococcus aureus (MRSA). The settings on record: MRSA; for MIC: Staphylococcus aureus, read-out: MIC MRSA. In short, it runs like this: (§1)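 Broth microdilution in Brain-Heart Infusion with twofold dilution series from 25 µg/mL final and a no-compound control. Overnight incubation at 37° C in a CO2 atmosphere; visual growth endpoint gives the MIC.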

In assay [2] the test system is vancomycin-resistant Enterococcus spp. (VRE). The settings on record: for MIC: Enterococcus, VRE, read-out: MIC VREF. In a few lines:
as §1

The next assay relates to Streptococcus pneumoniae. The settings on record: Streptococcus pneumoniae, read-out: MIC S. pneu. In short, it runs like this:
as §1

Setting [3] is: VREF, BHI broth, overnight 37° C.
Where [4] appears, read: S. pneu, BHI broth, overnight 37° C.
Setting [5] is: 16 h, BHI broth, 37° C., overnight (about 16 hours).
[6] abbreviates: BHI broth, 37° C., overnight (about 16 hours).
Setting [7] is: 16 h, BHI broth, 37° C., about 16 hours.
[8] abbreviates: BHI broth, 37° C., about 16 hours.

With `COc1ccc(NC(=O)CCc2cc(-c3c[nH]c4ccc(Br)cc34)nc3ccc(C#CCN4CCCCC4)cc23)cc1` [Example 266], the minimal inhibitory concentration (MIC) is less than 7 µg/mL in assay [1] (BHI broth, overnight 37° C.); greater than 25 µg/mL in assay [2] (setting [3]); less than 7 µg/mL with Streptococcus pneumoniae (setting [4]).
In the case of `C[Si](C)(C)CCOC(=O)n1cc(-c2nc3ccc(Cl)cc3c3c2CCO3)c2cc(Br)ccc21` [Example 421], the MIC (in assay [1] (16 h); in assay [2] (16 h); with Streptococcus pneumoniae (16 h)) was greater than 25 µg/mL throughout.
On to `NC1CCC(NC(=O)c2cc(-c3c[nH]c4ccc(Br)cc34)nc3ccc(I)cc23)CC1` (stereo not drawn) [Example 113], for which the MIC (in assay [1] (setting [5]); in assay [2] (setting [5]); with Streptococcus pneumoniae (setting [6])) was less than 7 µg/mL throughout.
Consider `OCc1[nH]c2ccccc2c1-c1cc(Cl)c2ccccc2n1` [Example 459], for which the MIC (in assay [1] (setting [7]); in assay [2] (setting [7]); with Streptococcus pneumoniae (setting [8])) was greater than 25 µg/mL each time.
Turning to `OCc1cc(-c2c[nH]c3ccc(Br)cc23)nc2cc(Cl)c(C#CCN3CCCCC3)cc12` [Example 518], the MIC (in assay [1] (setting [7]); in assay [2] (setting [7]); in the assay with Streptococcus pneumoniae (setting [8])) was less than 7 µg/mL each time.
As for `NC1CCCCC1NC(=O)c1cc(-c2c[nH]c3ccc(Br)cc23)nc2c(Cl)c(Cl)ccc12` (stereo not drawn) [Example 280], the MIC was less than 7 µg/mL in assay [1] (BHI broth, overnight 37° C.); less than 7 µg/mL in assay [2] (setting [3]); less than 7 µg/mL with Streptococcus pneumoniae (setting [4]).
Regarding `OCc1cc(-c2c[nH]c3ccc(Br)cc23)nc2cc(I)ccc12` [Example 453], the MIC (in assay [1] (setting [7]); in assay [2] (setting [7]); with Streptococcus pneumoniae (setting [8])) was less than 7 µg/mL each time.
On to `Fc1ccc2c(-c3cc(Cl)c4ccccc4n3)c[nH]c2c1` [Example 340], for which the MIC in assay [1] (BHI broth, overnight 37° C.) is less than 7 µg/mL; in assay [2] (setting [3]), less than 7 µg/mL; in the assay with Streptococcus pneumoniae (setting [4]) it was less than 7 µg/mL.
Regarding `NCc1ccc(CNC(=O)c2cc(-c3c[nH]c4ccc(Br)cc34)nc3c(Cl)cc(I)cc23)cc1` [Example 102], the MIC (in assay [1] (setting [5]); in assay [2] (setting [5]); in the assay on Streptococcus pneumoniae (setting [6])) was less than 7 µg/mL each time.
As to `Cn1cc(-c2cc(C(=O)NCC3CCC(CN)CC3)c3ccc(F)cc3n2)c2cc(Br)ccc21` (stereo not drawn) [Example 326], the MIC in assay [1] (BHI broth, overnight 37° C.) was less than 7 µg/mL; in assay [2] (setting [3]), less than 7 µg/mL; with Streptococcus pneumoniae (setting [4]), less than 7 µg/mL.
Regarding `O=[N+]([O-])c1cccc2nc(-c3c[nH]c4cc(F)ccc34)ccc12` [Example 388], the MIC in assay [1] (BHI broth, overnight 37° C.) is greater than 25 µg/mL; in assay [2] (setting [3]), greater than 25 µg/mL; with Streptococcus pneumoniae (setting [4]), greater than 25 µg/mL.
`NCC1CCC(CNC(=O)c2cc(-c3c[nH]c4ccc(Br)cc34)nc3cc(Cl)cc(Cl)c23)CC1` (stereo not drawn) [Example 247]: the MIC is less than 7 µg/mL in assay [1] (BHI broth, overnight 37° C.); less than 7 µg/mL in assay [2] (setting [3]); less than 7 µg/mL in the assay with Streptococcus pneumoniae (setting [4]).
With `NCCNC(=O)c1cc(-c2c[nH]c3ccc(Cl)cc23)nc2c(Br)cccc12` [Example 322], the minimal inhibitory concentration (MIC) is less than 7 µg/mL in assay [1] (BHI broth, overnight 37° C.); less than 7 µg/mL in assay [2] (setting [3]); less than 7 µg/mL in the assay on Streptococcus pneumoniae (setting [4]).
Consider `NCc1ccc(CNC(=O)c2cc(-c3c[nH]c4ccc(Br)cc34)nc3ccc(C#CCNCCc4ccccc4)cc23)cc1` [Example 223], for which the MIC in assay [1] (BHI broth, overnight 37° C.) is less than 7 µg/mL; in assay [2] (setting [3]) it was less than 7 µg/mL; with Streptococcus pneumoniae (setting [4]) it was less than 7 µg/mL.
On to `COc1ccc(NC(=O)c2cc(-c3c[nH]c4ccc(Br)cc34)nc3ccc(C(F)(F)F)cc23)cc1` [Example 170], for which the figures for the minimum inhibitory concentration (MIC) (in assay [1] (setting [5]); in assay [2] (setting [5]); in the assay with Streptococcus pneumoniae (setting [6])) were less than 7 µg/mL, greater than 25 µg/mL and less than 7 µg/mL, respectively.
For `Cc1[nH]c2ccc(Cl)cc2c1-c1ccc2cccc(C)c2n1` [Example 425], the MIC (in assay [1] (setting [7]); in assay [2] (setting [7]); in the assay on Streptococcus pneumoniae (setting [8])) was less than 7 µg/mL each time.
For the compound `NCCNC(=O)c1cc(-c2c[nH]c3ccc(Br)cc23)nc2cc(Cl)ccc12` [Example 487], the MIC (in assay [1] (setting [7]); in assay [2] (setting [7]); with Streptococcus pneumoniae (setting [8])) was less than 7 µg/mL throughout.
In the case of `Cn1cc(-c2ccc3cc(Cl)ccc3n2)c2cc([N+](=O)[O-])ccc21` [Example 232], the MIC in assay [1] (BHI broth, overnight 37° C.) was less than 7 µg/mL; in assay [2] (setting [3]) it was less than 7 µg/mL; in the assay on Streptococcus pneumoniae (setting [4]) it was less than 7 µg/mL.
Consider `C[Si](C)(C)CCOC(=O)n1cc(/C=N/c2ccc(I)cc2)c2cc(Br)ccc21` [Example 383], for which the MIC (in assay [1]; in assay [2]; in the assay with Streptococcus pneumoniae) was greater than 25 µg/mL each time.
`Cn1cc(-c2cc(C(=O)NCCN)c3cc(C#CCNCC4CCCCC4)ccc3n2)c2cc(Br)ccc21` [Example 401]: the MIC (in assay [1] (setting [7]); in assay [2] (setting [7]); with Streptococcus pneumoniae (setting [8])) was less than 7 µg/mL each time.
As for `COc1ccc2nc(-c3c[nH]c4ccc(Cl)cc34)ccc2c1` [Example 416], the MIC is less than 7 µg/mL in assay [1] (setting [7]), greater than 25 µg/mL in assay [2] (setting [7]) and less than 7 µg/mL with Streptococcus pneumoniae (setting [8]).
With `Cn1cc(-c2cc(C(=O)NCCN)c3cc(C#CCN4CC=CC4)ccc3n2)c2cc(Br)ccc21` [Example 406], the MIC (in assay [1] (setting [7]); in assay [2] (setting [7]); in the assay with Streptococcus pneumoniae (setting [8])) was less than 7 µg/mL throughout.
Regarding `OCc1cc(-c2c[nH]c3ccc(Br)cc23)nc2cc(F)ccc12` [Example 446], the MIC (in assay [1] (setting [7]); with Streptococcus pneumoniae (setting [8])) was less than 7 µg/mL throughout. Further, in assay [2] (setting [8]), the “MIC VREF” value is less than 7 µg/mL.
As to `NCCCCNC(=O)c1cc(-c2c[nH]c3ccc(Br)cc23)nc2ccc(I)cc12` [Example 109], the MIC (in assay [1] (setting [5]); in assay [2] (setting [5]); in the assay with Streptococcus pneumoniae (setting [6])) was less than 7 µg/mL throughout.
In the case of `NCCNC(=O)c1cc(-c2c[nH]c3ccc(Br)cc23)nc2ccc(C#CCNCCc3ccccc3)cc12` [Example 527], the MIC (in assay [1] (setting [7]); in assay [2] (setting [7]); in the assay with Streptococcus pneumoniae (setting [8])) was less than 7 µg/mL each time.
Consider `Cn1cc(-c2cc(C(=O)O)c3ccc(F)cc3n2)c2cc(Br)ccc21` [Example 310], for which the MIC in assay [1] (BHI broth, overnight 37° C.) was less than 25 µg/mL; in assay [2] (setting [3]), greater than 25 µg/mL; in the assay with Streptococcus pneumoniae (setting [4]) it was less than 25 µg/mL.
As for `N#Cc1ccc2[nH]cc(-c3cc(Cl)c4ccc(Cl)cc4n3)c2c1` [Example 462], the MIC (in assay [1] (setting [7]); in assay [2] (setting [7]); with Streptococcus pneumoniae (setting [8])) was greater than 25 µg/mL throughout.
Regarding `NCCNC(=O)c1cc(-c2c[nH]c3ccc(Br)cc23)nc2c(Cl)c(Cl)ccc12` [Example 279], the MIC was less than 7 µg/mL in assay [1] (BHI broth, overnight 37° C.); less than 7 µg/mL in assay [2] (setting [3]); less than 7 µg/mL in the assay with Streptococcus pneumoniae (setting [4]).
For `Clc1ccc2nc(-c3c[nH]c4cc(Cl)ccc34)ccc2c1` [Example 202], the MIC is less than 7 µg/mL in assay [1] (BHI broth, overnight 37° C.); greater than 25 µg/mL in assay [2] (setting [3]); less than 7 µg/mL in the assay on Streptococcus pneumoniae (setting [4]).
Turning to `Oc1ccc2[nH]cc(-c3cc(Cl)c4ccccc4n3)c2c1` [Example 347], the MIC in assay [1] (BHI broth, overnight 37° C.) is less than 25 µg/mL; in assay [2] (setting [3]), greater than 25 µg/mL; in the assay on Streptococcus pneumoniae (setting [4]), less than 25 µg/mL.
As to `COc1ccc2nc(-c3c[nH]c4ccccc34)ccc2c1` [Example 480], the MIC (in assay [1] (setting [7]); in assay [2] (setting [7]); with Streptococcus pneumoniae (setting [8])) was greater than 25 µg/mL each time.
Take `Cn1cc(-c2cc(C(=O)NC3CCC(N)CC3)c3cc(Cl)ccc3n2)c2cc(Br)ccc21` (stereo not drawn) [Example 371]: the MIC in assay [1] (BHI broth, overnight 37° C.) was less than 7 µg/mL; in assay [2] (setting [3]), less than 7 µg/mL; with Streptococcus pneumoniae (setting [4]), less than 7 µg/mL.
As for `NCC1CCCC(CNC(=O)c2cc(-c3c[nH]c4ccc(Br)cc34)nc3ccc(Cl)cc23)C1` (stereo not drawn) [Example 132], the MIC (in assay [1] (setting [5]); in assay [2] (setting [5]); with Streptococcus pneumoniae (setting [6])) was less than 7 µg/mL each time.
Regarding `Fc1ccc2c(CCl)cc(-c3c[nH]c4ccc(Br)cc34)nc2c1` [Example 508], the MIC (in assay [1] (setting [7]); in assay [2] (setting [7]); with Streptococcus pneumoniae (setting [8])) was less than 7 µg/mL in each case.
On to `Cc1cccc2c(-c3ccc4cc(Cl)ccc4n3)c[nH]c12` [Example 199], for which the MIC (in assay [1] (setting [5]); in assay [2] (setting [5]); with Streptococcus pneumoniae (setting [6])) was greater than 25 µg/mL in each case.
As to `CN1CCN(CC#Cc2ccc3nc(-c4cn(C)c5ccc(Br)cc45)cc(C(=O)NCCN)c3c2)CC1` [Example 405], the MIC (in assay [1] (setting [7]); in assay [2] (setting [7]); in the assay with Streptococcus pneumoniae (setting [8])) was less than 25 µg/mL in each case.
For `Fc1ccc2c(-c3ccc4ccccc4n3)c[nH]c2c1` [Example 183], the MIC is less than 25 µg/mL in assay [1] (setting [5]), greater than 25 µg/mL in assay [2] (setting [5]) and greater than 25 µg/mL with Streptococcus pneumoniae (setting [6]).
On to `NCCCNC(=O)c1cc(-c2c[nH]c3ccc(Br)cc23)nc2ccc(I)cc12` [Example 108], for which the MIC (in assay [1] (setting [5]); in assay [2] (setting [5]); in the assay on Streptococcus pneumoniae (setting [6])) was less than 7 µg/mL each time.
Regarding `NCc1ccc(CNC(=O)c2cc(-c3c[nH]c4ccc(Br)cc34)nc3cc(Cl)c(C#CCNCCc4ccc(Cl)cc4)cc23)cc1` [Example 274], the MIC in assay [1] (BHI broth, overnight 37° C.) was less than 25 µg/mL; in assay [2] (setting [3]) it was greater than 25 µg/mL; in the assay on Streptococcus pneumoniae (setting [4]) it was less than 7 µg/mL.
Consider `N#Cc1ccc2[nH]cc(-c3ccc4cc(Cl)ccc4n3)c2c1` [Example 200], for which, in assay [1] (BHI broth, overnight 37° C.), the “MIC MRSA” value is less than 7 µg/mL. The MIC (in assay [2] (setting [3]); with Streptococcus pneumoniae (setting [4])) was greater than 25 µg/mL throughout.
With `COc1ccc2[nH]cc(-c3ccc4cc(Cl)ccc4n3)c2c1` [Example 195], the MIC (in assay [1] (setting [5]); in assay [2] (setting [5]); in the assay on Streptococcus pneumoniae (setting [6])) was greater than 25 µg/mL each time.
Turning to `NCc1ccc(/C=C/c2cc(-c3c[nH]c4ccc(Br)cc34)nc3cc(Br)ccc23)cc1` [Example 374], the MIC in assay [1] (BHI broth, overnight 37° C.) is less than 7 µg/mL; in assay [2] (setting [3]) it was less than 7 µg/mL; in the assay with Streptococcus pneumoniae (setting [4]), less than 7 µg/mL.
